The test system of experiment [1] is HCV replicon GT3a_Y93H. The experiment is described as follows: Cell-based HCV replicon assay, GT3a Y93H. To be noted: Hepatitis C virus, 72 h, read-out: GT3a_Y93H EC90. As to the method:
(§1) To measure cell-based anti-HCV activity of compounds of the present invention, two complimentary assays were employed using various replicons. In the first assay (“Replicon Assay A”), replicon cells were seeded at 2000 cells/well in 384-well 384-well flat bottom tissue culture treated clear bottom plate (Corning 3707) in the presence of the test compound. Various concentrations of test compound, typically in 10 serial dilutions, were added to the assay mixture, with the starting concentration ranging from 333.3 nM to […]. The final concentration of DMSO was 0.5%. Fetal bovine serum was 5%, in the assay media. Cells were harvested on day 3 by removing media and washing the cells with a suitable wash buffer. The cells are lysed with the addition of 1× Qiagen lysis buffer (Cat #1062731). The replicon RNA level was measured using real time PCR (TaqMan® EZ RT-PCR, Applied Biosystems 403028) with the following primers and probes: […]
(§2) Cyclophilin RNA was used as endogenous control and was amplified in the same reaction as NS5B (multiplex PCR). The real-time RT-PCR reactions were run on ABI PRISM 7900HT Sequence Detection System using the following program: 50° C. for 2 minutes, 60° C. for 30 minutes, 95° C. for 5 minutes, 40 cycles of 94 C for 20 sec, 55 C for 1 minutes.
(§3) The amount of HCV replicon RNA per cell is quantified using a linear regression curve for a known nanogram (ng) amount of HCV replicon total RNA. This is established by plotting the Cycle Threshold values (Ct) from the Neo probe and primer set versus the log (ng) for each HCV replicon total RNA standard. The amount of HCV RNA for each replicon sample is calculated by taking the sample's Ct value, minus the line intercept, divided by the slope of the line. Similarly, the amount of Cyclophilin mRNA per cell is also quantified using a linear regression curve for a known nanogram (ng) amount of HCV replicon total RNA. Again, this is established by plotting the Cycle Threshold values (Ct) from the Cyclophilin probe and primer set versus the log (ng) for each HCV replicon total RNA standard.
(§4) In an alternate assay (“Replicon Assay B”), 1000 cells were seeded per well in a 384-well collagen coated black plate from Greiner bio-one (Cat #781946) in 5% FBS. Inhibitors of this invention were added at 24 h post-seeding, and the plates were incubated for 3 days. Cells were subsequently lysed with Qiagen lysis buffer (Cat #1062731) to extract the RNA. HCV replicon RNA level was measured by real-time PCR using the RNA-to-CT kit from Applied Biosystem (Cat #4392656) and genotype-specific primers and probes. The amplicon was located within NS5B. The sequence of the PCR primers are as follows: 5B.2F, ATGGACAGGCGCCCTGA (SEQ. ID NO. 1); 5B.2R, […] (SEQ. ID NO. 2); the probe sequence was FAM-labeled CACGCCATGCGCTGCGG (SEQ. ID NO. 3). To detect genotype 1A the primer 1A F, TGCGGAACCGGTGAGTACA and 1A R, […] were used; the probe sequence was FAM-[…].
(§5) The real-time RT-PCR reactions were run on ABI PRISM 7900HT or Viia7 Sequence Detection System using the following program: 48° C. for 30 minutes, 95 C for 10 minutes, 40 cycles of 95 C for 15 sec, 60 C for 1 minutes. The 50% effective concentration (EC50) was the drug concentration necessary to achieve an increase in the cycle threshold (CT) of 1 over the projected baseline CT. The EC90 was the drug concentration necessary to achieve an increase in CT of 3.2 over the projected baseline CT.

Experiment [2] deals with HCV replicon GT1a_Q30R. The experiment is described as follows: Cell-based HCV replicon assay, GT1a Q30R. As to conditions: Hepatitis C virus, 72 h, read-out: GT1a_Q30R EC90. As to the method: as §1, §2, §3, §4, §5
In general terms: Replicon systems follow genome replication, usually without infectious particles.

Experiment [3] relates to HCV replicon GT6. Kind of experiment: Cell-based HCV replicon assay, GT6. As to conditions: Hepatitis C virus, GT6, 72 h; replicon RNA level by real-time PCR, 3 days. On the procedure: as §1, §2, §3, §4, §5
In experiment [4] the test system is HCV replicon GT1a_Y93H. The experiment is described as follows: Cell-based HCV replicon assay, GT1a Y93H. To be noted: Hepatitis C virus, 72 h, read-out: GT1a_Y93H EC90. As to the method:
as §1, §2, §3, §4, §5

Experiment [5] deals with HCV replicon GT1b_WT. Kind of experiment: Cell-based HCV replicon assay, GT1b WT. As to conditions: Hepatitis C virus, 72 h, read-out: GT1b_WT EC90. On the procedure:
as §1, §2, §3, §4, §5

Experiment [6] concerns HCV replicon GT2a. The experiment is described as follows: Cell-based HCV replicon assay, GT2a. As to conditions: Hepatitis C virus, 72 h, read-out: GT2a EC90. As to the method: as §1, §2, §3, §4, §5
Experiment [7] deals with HCV replicon GT4. Kind of experiment: Cell-based HCV replicon assay, GT4. As to conditions: Hepatitis C virus, GT4, 72 h; replicon RNA level by real-time PCR, 3 days. As to the method: as §1, §2, §3, §4, §5
Experiment [8] deals with HCV replicon GT2b_31M. The experiment is described as follows: Cell-based HCV replicon assay, GT2b 31M. As to conditions: Hepatitis C virus, 72 h, read-out: GT2b_31M EC90. On the procedure:
as §1, §2, §3, §4, §5

Experiment [9] has as its system HCV replicon GT5. Kind of experiment: Cell-based HCV replicon assay, GT5. As to conditions: Hepatitis C virus, GT5, 72 h; replicon RNA level by real-time PCR, 3 days. On the procedure: as §1, §2, §3, §4, §5
In experiment [10] the test system is HCV replicon GT1a_L31V. Kind of experiment: Cell-based HCV replicon assay, GT1a L31V. As to conditions: Hepatitis C virus, 72 h, read-out: GT1a_L31V EC90. As to the method:
as §1, §2, §3, §4, §5

Experiment [11] concerns HCV replicon GT3a_WT. The experiment is described as follows: Cell-based HCV replicon assay, GT3a WT. As to conditions: Hepatitis C virus, 72 h; replicon RNA level by real-time PCR, 3 days. As to the method: as §1, §2, §3, §4, §5
The subject of experiment [12] is HCV replicon Gt1a_WT. Kind of experiment: Cell-based HCV replicon assay, GT1a WT. As to conditions: Hepatitis C virus, 72 h; replicon RNA level by real-time PCR, 3 days. On the procedure:
as §1
(§6) The amount of HCV replicon RNA per cell is quantified using a linear regression curve for a known nanogram (ng) amount of HCV replicon total RNA. […] The amount of HCV RNA for each replicon sample is calculated by taking the sample's Ct value, minus the line intercept, divided by the slope of the line. Similarly, the amount of Cyclophilin mRNA per cell is also quantified using a linear regression curve for a known nanogram (ng) amount of HCV replicon total RNA. […]

Experiment [13] has as its system HCV replicon GT1a_M28V. The experiment is described as follows: Cell-based HCV replicon assay, GT1a M28V. As to conditions: Hepatitis C virus, 72 h, read-out: GT1a_M28V EC90. As to the method: as §1, §6
[14] abbreviates: replicon RNA level by real-time PCR, 3 days.

From patent US20190002480A1, “Silane-Containing Heterocyclic Compounds and Methods of Use Thereof for the Treatment of Viral Diseases” (Merck Sharp & Dohme Corp., priority 2015, published 2019) come the findings set out here.

Where two headings read alike, the source gives them in different places.

In the case of `COC(=O)N[C@H](C(=O)N1CCC[C@H]1c1ncc(-c2ccc3c(c2)cc2n3[C@H](c3cnc(C4CC4)s3)Oc3cc(-c4cnc([C@@H]5C[Si](C)(C)CN5C(=O)[C@@H](NC(=O)OC)C(C)C)[nH]4)cc(F)c3-2)[nH]1)C(C)C` [Compound 6], the 90% effect concentration (EC90) – broadly, the concentration at which the effect reaches the 90% level – in [1] amounted to 118 nM; in experiment [2], 0.0729 nM; in experiment [3] it was 0.0057 nM; in [4], 0.199 nM; in experiment [5], 0.00116 nM; in [6] it was 0.00339 nM. Moreover, the concentration for an effect of 90% (EC90) in experiment [7] was 0.00135 nM; in experiment [8], 3.04 nM; in experiment [9] it was 0.0069 nM; in [10], 0.0599 nM; in [11], 1.32 nM.
Turning to `COC(=O)NC(C(=O)N1CCC[C@H]1c1ncc(-c2ccc3c(c2)cc2n3[C@H](c3cnc(C4CC4)s3)Oc3cc(-c4cnc([C@@H]5C[Si](C)(C)CN5C(=O)[C@@H](NC(=O)OC)C5CCCCC5)[nH]4)cc(F)c3-2)[nH]1)C(C)C` (stereo partly drawn) [Compound 7], the EC90 in [1] is 82 nM; in experiment [2], 0.0039 nM; in [3], 0.0906 nM; in [4], 0.022 nM; in experiment [5], 0.00244 nM; in experiment [6], 0.00177 nM. In addition, the EC90 came to 0.00147 nM in experiment [7]; 0.132 nM in experiment [8]; 0.0246 nM in [9]; 0.0045 nM in [10]; 0.051 nM in experiment [11].
As to `COC(=O)NC(C(=O)N1CCC[C@H]1c1ncc(-c2ccc3c(c2)cc2n3[C@H](c3cnc(C4CC4)s3)Oc3cc(-c4cnc([C@@H]5C[Si](C)(C)CN5C(=O)[C@@H](NC(=O)OC)C5CCC(F)(F)CC5)[nH]4)cc(F)c3-2)[nH]1)C(C)C` (stereo partly drawn) [Compound 9], the EC90 in experiment [1] turned out to be 322 nM; in experiment [2] it was 0.0247 nM; in experiment [3], 0.0109 nM; in experiment [4] it was 0.29 nM; in experiment [5], 0.00108 nM; in experiment [6], 0.00243 nM. Moreover, the EC90 was determined as 0.00137 nM in [7]; 4.24 nM in experiment [8]; 0.009 nM in [9]; 0.026 nM in experiment [10]; 2.24 nM in experiment [11].
As to `COC(=O)N[C@H](C(=O)N1CCC[C@H]1c1ncc(-c2cc(F)c3c(c2)O[C@@H](c2ccc(C4CC4)s2)n2c-3cc3cc(-c4cnc([C@@H]5C[Si](C)(C)CN5C(=O)[C@@H](NC(=O)OC)C(C)C)[nH]4)ccc32)[nH]1)C(C)C` [Compound 13], the EC90 was found to be 614 nM in experiment [1]; 0.0328 nM in experiment [2]; 0.0108 nM in experiment [3]; 0.561 nM in experiment [4]; 0.00118 nM in experiment [5]; 0.00338 nM in [6]. Further, the concentration for an effect of 90% (EC90) in [7] was found to be 0.0015 nM; in experiment [8] it was 0.933 nM; in experiment [9] it was 0.0061 nM; in experiment [10], 0.0756 nM; in experiment [11] it was 0.469 nM.
`COC(=O)NC(C(=O)N1C[Si](C)(C)C[C@H]1c1ncc(-c2ccc3c(c2)cc2n3[C@H](c3ccc(C4CC4)s3)Oc3cc(-c4cnc([C@@H]5CCCN5C(=O)[C@@H](NC(=O)OC)C(C)C)[nH]4)cc(F)c3-2)[nH]1)C1CCOCC1` (stereo partly drawn) [Compound 14]: the EC90 in experiment [1] is 175 nM; in experiment [2], 0.0027 nM; in [3] it was 0.0842 nM; in experiment [4], 0.02 nM; in [5], 0.00131 nM; in experiment [6] it was 0.0042 nM. Besides, the EC90 in [7] was 0.00111 nM; in [8] it was 0.038 nM; in experiment [9], 0.013 nM; in [10], 0.0062 nM; in experiment [11], 0.018 nM.
Regarding `COC(=O)N[C@H](C(=O)N1CCC[C@H]1c1ncc(-c2cc(F)c3c(c2)O[C@@H](c2ccc(C4CC4)s2)n2c-3cc3cc(-c4cnc([C@@H]5C[Si](C)(C)CN5C(=O)[C@@H](NC(=O)OC)[C@@H]5CCOC(C)(C)C5)[nH]4)ccc32)[nH]1)C(C)C` [Compound 15], the concentration for an effect of 90% (EC90) came to 442 nM in [1]; 0.0047 nM in experiment [2]; 0.0144 nM in experiment [3]; 0.185 nM in [4]; 0.00102 nM in experiment [5]; 0.0021 nM in [6]. The EC90 in [7] worked out at 0.00136 nM; in [8], 0.314 nM; in experiment [9] it was 0.0065 nM; in experiment [10], 0.0075 nM; in experiment [11] it was 0.173 nM.
`COC(=O)NC(C(=O)N1C[Si](C)(C)C[C@H]1c1ncc(-c2ccc3c(c2)cc2n3[C@H](c3ccc(C4CC4)s3)Oc3cc(-c4cnc([C@@H]5CCCN5C(=O)[C@@H](NC(=O)OC)C(C)C)[nH]4)cc(F)c3-2)[nH]1)C1CCC(F)(F)CC1` (stereo partly drawn) [Compound 16]: the EC90 came out at 3690 nM in experiment [1]; 0.0285 nM in experiment [2]; 0.0252 nM in [3]; 0.972 nM in [4]; 0.00184 nM in experiment [5]; 0.00575 nM in experiment [6]. Besides, the EC90 in [7] stood at 0.00183 nM; in [8], 2.83 nM; in [9] it was 0.0173 nM; in experiment [10], 0.0507 nM; in [11] it was 1.68 nM.
On to `COC(=O)N[C@H](C(=O)N1CCC[C@H]1c1ncc(-c2cc(F)c3c(c2)O[C@@H](c2ccc(C4CC4)s2)n2c-3cc3cc(-c4cnc([C@@H]5C[Si](C)(C)CN5C(=O)[C@H](N)c5ccccc5)[nH]4)ccc32)[nH]1)C(C)C` [Compound 17], for which the 90% effect concentration (EC90) in [1] is 765 nM; in experiment [2] it was 0.896 nM; in [12], 0.00142 nM; in [3], 0.105 nM; in experiment [4] it was 6.18 nM; in experiment [13], 0.00192 nM. The EC90 is 0.00141 nM in experiment [5] (setting [14]); 0.0582 nM in [6] (setting [14]); 0.0124 nM in experiment [7]; 5.33 nM in experiment [8]; 0.0527 nM in experiment [9]; 1.76 nM in experiment [10]. This compound came in with an EC90 in experiment [11] of 3.28 nM.
